Tested on: HeLa cells
Experiment: Doxorubicin release from nanogels in cell media, live/dead cell assay
Type: cell-based
Settings: after addition of glutathione (nanogels) or free Dox (control wells); control 93%; free Dox amount 6-7 times larger
Description: Doxorubicin release from nanogels in cell media. Using standard cell culture techniques, 5×10^4 HeLa cells were added to each well of a 24-well plate and cultured in complete DMEM for 24 h to permit cell attachment to the surface. After this time period, Dox-loaded nanogel (16%, 1.5 mg) was added to four wells (for each nanogel sample), leaving 12 wells with no gel to serve at control. After another 24 hours (48 hours total), the media was removed from 10 of the wells (6 samples, 4 controls) and a live/dead cell assay was performed to measure the toxicity of the gel before addition of the reducing agent. After performing this analysis, glutathione (0.2 mg) dissolved in sterile PBS, was added to each well containing the nanogels and 6 of the control wells. Additionally, free Dox (1 mg) was added to 3 of the control wells. […]
To confirm the non-limiting exemplary concept that Dox-loaded nanogels will be degraded upon the addition of glutathione in cellular media and in turn, the released Dox molecules will kill cancer cells, HeLa cancer cells were incubated with and without 16.4% Dox-loaded nanogels. The cell viability was measured at the 48-hour time point using live/dead staining to estimate the cytotoxicity of the Dox-loaded nanogel before addition of the reducing agent. […]

COc1cccc2c1C(=O)c1c(O)c3c(c(O)c1C2=O)C[C@@](O)(C(=O)CO)C[C@@H]3O[C@H]1C[C@H](N)[C@H](O)[C@H](C)O1.Cl [free Dox, doxorubicin hydrochloride]
cell viability of HeLa cells after Dox release: 7%
